Test results reported in US12522594B2, “2-heteroaryl-3-oxo-2,3-dihydropyridazine-4-carboxamides for the treatment of cancer” (Deutsches Krebsforschungszentrum, priority 2017, dated 2026).
Where “and” joins values, the source holds several entries; their conditions need not be identical. Equal values may be shown once.

What was measured:
Type in all cases: cell-based
[1] = tested on: human monocytes; test: In vitro assay 4: rescue of TNFα production from human primary monocytes (LPS + KA); conditions: one value per donor; for Individual Donors Conc of highest rescue: concentration (of 1, 0.3, 0.1 uM tested) at which highest TNFα rescue was observed; for Individual Donors % rescue TNFα normalised to ref cmpd: human monocytes, 10 ng/mL LPS + 200 uM KA, 18 hours, highest percent rescue relative to highest rescue with GNF-351
Experimental: In Vitro Assay 4: Rescue of TNFα Production from Human Primary Monocytes
The ability of the substances to enhance immune cell activity was determined. The substances were tested for their capacity to reverse KA-induced inhibition of TNFα production by LPS-stimulated human monocytes. Human monocytes were purified by negative selection from donor PBMCs using Miltenyi beads and seeded at 2×10^5 cells/well in complete growth medium (RPMI 1640, 10% FCS). Monocytes were incubated with 10 ng/mL LPS (O127:B8, #L4516, Sigma) and 200 uM KA (#3375, Sigma) and substances were added at concentrations of 1 uM, 0.3 uM and 0.1 uM and cultured for 18 hours. LPS alone served as the positive control. TNFα production in the supernatant was measured by Meso Scale Discovery immunoassay and the ability of the substances to rescue TNFα production was calculated as a percentage of LPS stimulation and KA-induced inhibition and normalized to the donor-specific response with the reference AHR antagonist compound GNF-351 (Smith et al., J Pharmacol Exp Ther, 2011, 338(1):318-27).

[2] = target: T1, AHR (Homo sapiens, UniProt P35869); test: In vitro assay 1: antagonism in human cell line (transactivation assay, U87 cells prestimulated with kynurenic acid, DRE firefly luciferase reporter); design: host or cells: U87 glioblastoma cells, stably transfected with DRE firefly luciferase and renilla reporter constructs; conditions: 150 uM kynurenic acid, 20 hours, read-out: Assay 1: AHR-luc Hum Antagonism IC50
T1 sequence (P35869 11-848): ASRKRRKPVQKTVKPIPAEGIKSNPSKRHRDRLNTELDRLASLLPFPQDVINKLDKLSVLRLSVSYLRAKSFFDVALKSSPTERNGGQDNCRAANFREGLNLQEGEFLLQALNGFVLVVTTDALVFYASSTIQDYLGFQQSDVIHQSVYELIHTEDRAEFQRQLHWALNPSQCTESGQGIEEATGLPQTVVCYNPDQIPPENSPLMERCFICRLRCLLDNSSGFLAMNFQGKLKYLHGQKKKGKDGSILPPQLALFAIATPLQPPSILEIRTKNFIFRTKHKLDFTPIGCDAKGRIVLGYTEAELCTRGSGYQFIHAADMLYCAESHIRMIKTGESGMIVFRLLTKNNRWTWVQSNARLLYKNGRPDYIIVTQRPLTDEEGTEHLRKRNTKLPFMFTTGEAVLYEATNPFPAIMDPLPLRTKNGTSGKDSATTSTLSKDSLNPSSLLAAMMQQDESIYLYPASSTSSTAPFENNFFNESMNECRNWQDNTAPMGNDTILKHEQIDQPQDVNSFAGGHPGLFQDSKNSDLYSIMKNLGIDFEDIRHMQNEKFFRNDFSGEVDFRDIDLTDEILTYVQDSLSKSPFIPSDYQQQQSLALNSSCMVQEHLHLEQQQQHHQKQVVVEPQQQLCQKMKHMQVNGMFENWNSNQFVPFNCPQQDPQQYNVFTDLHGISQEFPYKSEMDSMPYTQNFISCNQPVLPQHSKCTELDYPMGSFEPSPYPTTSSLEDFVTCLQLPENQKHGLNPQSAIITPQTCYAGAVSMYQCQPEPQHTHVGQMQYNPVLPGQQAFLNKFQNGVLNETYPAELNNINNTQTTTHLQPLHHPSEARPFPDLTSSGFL
In short: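 Antagonism measured after kynurenic acid prestimulation in U87 cells that express AHR endogenously and stably harbor a firefly luciferase gene under DRE control plus a constitutive renilla construct. Positive and negative controls served for normalization.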

[3] = target: T1, AHR; test: In vitro assay 3: AHR-regulated CYP1A1 expression in human cell line (U937, qPCR, KA stimulation); conditions: U937 cells, 200 uM KA, 6 hours, CYP1A1 expression by qPCR; read-out: Assay 3: Hum CYP1A1 Antagonism IC50
In short: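 U937 human monocytic cells were stimulated with 200 uM KA for 6 h, with or without compound at eight concentrations from 1 nM to 3 uM, in duplicate. CYP1A1 mRNA was quantified by Taqman qPCR as fold expression normalised to HPRT. Unstimulated cells served as negative control.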

[4] = target: T1, AHR; test: In vitro assay 2: agonism in human cell line (transactivation assay, U87 cells, DRE firefly luciferase reporter); design: host or cells: U87 glioblastoma cells, stably transfected with DRE firefly luciferase and renilla reporter constructs; conditions: no kynurenic acid, 20 hours, read-out: Assay 2: AHR-luc Hum Agonism IC50
In short: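 Agonist readout: DRE firefly luciferase, with constitutive renilla reporter, in stably transfected U87 cells expressing AHR endogenously. Normalization used positive control (300 uM kynurenic acid) and negative control.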

| Compound | Individual Donors Conc of highest rescue [1] | Individual Donors % rescue TNFα normalised to ref cmpd [1] | IC50 [2] | IC50 [3] | IC50 [4] |
| --- | --- | --- | --- | --- | --- |
| O=C(NCC(O)C(F)F)c1cc(-c2ccc(Cl)cc2)nn(-c2cccnc2)c1=O (racemic) [Example 79, 6-(4-Chlorophenyl)-N-[(2RS)-3,3-difluoro-2-hydroxypropyl]-3-oxo-2-(pyridin-3-yl)-2,3-dihydropyridazine-4-carboxamide] | 0.3 µM and 0.1 µM | 76% and 63% | 39.5 nM | 80.4 nM | > 20000 nM |
| CCC(CO)NC(=O)c1cc(-c2ccc(C)cc2)nn(-c2cnn(C)c2)c1=O (single isomer, unassigned) [Example 5, N-(1-Hydroxybutan-2-yl)-6-(4-methylphenyl)-2-(1-methyl-1H-pyrazol-4-yl)-3-oxo-2,3-dihydropyridazine-4-carboxamide] | 1 µM | 67% and 99% and 61% | 5.99 nM | 3.45 nM | > 20000 nM |
| Cn1cc(-n2nc(-c3ccc(Cl)cc3)cc(C(=O)NCC(O)C(F)F)c2=O)cn1 (single isomer, unassigned; (+)) [Example 23, (+)-6-(4-Chlorophenyl)-N-(3,3-difluoro-2-hydroxypropyl)-2-(1-methyl-1H-pyrazol-4-yl)-3-oxo-2,3-dihydropyridazine-4-carboxamide] | 1 µM | 274% and 81% | 45.7 nM | – | > 20000 nM |
| O=C(NCC(O)C(F)F)c1cc(-c2ccc(Cl)cc2)nn(-c2cccnc2)c1=O (single isomer, unassigned; (+)) [Example 88, (+)-6-(4-Chlorophenyl)-N-(3,3-difluoro-2-hydroxypropyl)-3-oxo-2-(pyridin-3-yl)-2,3-dihydropyridazine-4-carboxamide] | 1 µM | 69% and 35% | 78 nM | – | > 20000 nM |
| Cn1cc(-n2nc(-c3ccc(Cl)cc3)cc(C(=O)NCC(O)C(F)F)c2=O)cn1 (single isomer, unassigned; (-)) [Example 22, (−)-6-(4-Chlorophenyl)-N-(3,3-difluoro-2-hydroxypropyl)-2-(1-methyl-1H-pyrazol-4-yl)-3-oxo-2,3-dihydropyridazine-4-carboxamide] | 1 µM | 66% and 71% | 20 nM | 11.2 nM | > 20000 nM |
| COCC(O)CNC(=O)c1cc(-c2ccc(Cl)cc2)nn(-c2cnn(C)c2)c1=O (single isomer, unassigned; (-)) [Example 25, (−)-6-(4-Chlorophenyl)-11-(2-hydroxy-3-methoxypropyl)-2-(1-methyl-1H-pyrazol-4-yl)-3-oxo-2,3-dihydropyridazine-4-carboxamide] | 1 µM | 46% and 53% | 68.2 nM | 91.1 nM | > 20000 nM |
| Cc1ccc(-c2cc(C(=O)NCC(O)C(F)(F)F)c(=O)n(-c3cnn(C)c3)n2)cc1 (single isomer, unassigned; enantiomer 2) [Example 12, (+)-6-(4-Methylphenyl)-2-(1-methyl-1H-pyrazol-4-yl)-3-oxo-N-(3,3,3-trifluoro-2-hydroxypropyl)-2,3-dihydropyridazine-4-carboxamide, Enantiomer 2] | 0.1 μM (2×) and 1 μM and 0.3 μM | 74% and 122% and 213% and 109% | 23.2 nM | 18.5 nM | > 20000 nM |
| Cc1ccc(-c2cc(C(=O)NC(C)CO)c(=O)n(-c3cnn(C)c3)n2)cc1 (stereo not drawn) [Example 7, N-(1-Hydroxypropan-2-yl)-6-(4-methylphenyl)-2-(1-methyl-1H-pyrazol-4-yl)-3-oxo-2,3-dihydropyridazine-4-carboxamide] | 0.1 μM and 1 μM (2×) | 126% and 63% and 49% | 20.5 nM | – | > 20000 nM |
| Cc1ccc(-c2cc(C(=O)N[C@@H](C)CO)c(=O)n(-c3cnn(C)c3)n2)cc1 [Example 8, N-[(2S)-1-Hydroxypropan-2-yl]-6-(4-methylphenyl)-2-(1-methyl-1H-pyrazol-4-yl)-3-oxo-2,3-dihydropyridazine-4-carboxamide] | 1 μM (4×) and 0.1 μM | 99% and 55% and 104% and 109% and 36% | 19 nM | 15.8 nM | > 20000 nM |
| Cc1ccc(-c2cc(C(=O)NCC(O)C(F)F)c(=O)n(-c3cnn(C)c3)n2)cc1 (stereo not drawn) [Example 13, N-(3,3-Difluoro-2-hydroxypropyl)-6-(4-methylphenyl)-2-(1-methyl-1H-pyrazol-4-yl)-3-oxo-2,3-dihydropyridazine-4-carboxamide] | 1 µM | 24% and 85% | 32.5 nM | 20 nM | > 20000 nM |
| COCC(O)CNC(=O)c1cc(-c2ccc(Cl)cc2)nn(-c2cnn(C)c2)c1=O (stereo not drawn) [Example 24, 6-(4-Chlorophenyl)-N-(2-hydroxy-3-methoxypropyl)-2-(1-methyl-1H-pyrazol-4-yl)-3-oxo-2,3-dihydropyridazine-4-carboxamide] | 0.3 µM and 1 µM | 84% and 59% | 87.5 nM | – | > 20000 nM |
| Cn1cc(-n2nc(-c3ccc(Cl)cc3)cc(C(=O)NC[C@H](O)CO)c2=O)cn1 [Example 27, 6-(4-Chlorophenyl)-N-[(2S)-2,3-dihydroxypropyl]-2-(1-methyl-1H-pyrazol-4-yl)-3-oxo-2,3-dihydropyridazine-4-carboxamide] | 1 µM and 0.3 µM | 87% and 105% | 177 nM | – | > 20000 nM |
| COC[C@H](CO)NC(=O)c1cc(-c2ccc(Cl)cc2)nn(-c2cnn(C)c2)c1=O [Example 29, 6-(4-Chlorophenyl)-N-[(2S)-1-hydroxy-3-methoxypropan-2-yl]-2-(1-methyl-1H-pyrazol-4-yl)-3-oxo-2,3-dihydropyridazine-4-carboxamide] | 1 µM | 66% and 88% | 76.1 nM | – | > 20000 nM |
| C[C@H](CO)NC(=O)c1cc(-c2ccc(Cl)cc2)nn(-c2cccnc2)c1=O [Example 69, 6-(4-Chlorophenyl)-N-[(2R)-1-hydroxypropan-2-yl]-3-oxo-2-(pyridin-3-yl)-2,3-dihydropyridazine-4-carboxamide] | 0.1 µM | 88% and 97% | 214 nM | – | > 20000 nM |
